{"source": "patent US9173893B2", "about": "“Purine nucleoside monophosphate prodrugs for treatment of cancer and viral infections” (Cocrystal Pharma, Inc., priority 2009, dated 2015)", "key": {"MT-2 cells": {"test_system": "MT-2 cells", "assay": "Analysis of intracellular nucleotides formed in MT-2 cells", "format": "in vitro ADME"}, "[1]": {"test_system": "human peripheral blood mononuclear (PBM) cells", "assay": "LC/MS analysis of nucleotides formed after incubation in PBM cells", "format": "in vitro ADME", "details": "for nucleosides/nucleotides detected by LC/MS / species not detected by LC/MS: 50 μM"}, "adenosine deaminase": {"test_system": "adenosine deaminase", "assay": "Adenosine deaminase assay (deamination of nucleosides)", "format": "in vitro ADME", "protocol": "To determine the propensity for deamination of the 6-substituted-2-amino purine nucleoside monophosphate prodrugs by adenosine deaminase, nucleoside compounds were incubated with the commercially available purified enzyme, and the reaction was followed spectrophotometrically. Reaction conditions were 50 mM potassium phosphate, pH 7.4, with 50 μM nucleoside analog in 0.5 mL at 25° C. Reaction time was 7 minutes with 0.002 units of enzyme and 120 minutes with 0.2 units of enzyme. (The unit definition of adenosine deaminase is one unit will deaminate 1.0 μmol of adenosine to inosine per minute at pH 7.5 at 25° C.) Deoxyadenosine was the positive control which was 59% deaminated under the given conditions in 7 minutes with 0.002 units of enzyme. Deoxyguanosine was the negative control. Optical density was measured at 265 nm or 285 nm. The difference in optical density between the beginning and the end of the experiment was divided by the extinction coefficient then multiplied by the volume of the reaction to determine the number of mols of substrate transformed into product. Mols of product were divided by mols of substrate equivalent to a 100% complete reaction then multiplied by 100 to obtain percent deamination. The limit of detection was 0.001 optical density units."}, "HIV-1LAI": {"test_system": "HIV-1LAI", "assay": "Anti-HIV (in PBM cells) assay", "format": "cell-based", "details": "Human immunodeficiency virus 1, PBMC; for EC50: read-out: HIV EC50; for EC90: read-out: HIV EC90", "protocol": "Stock solutions (20-40 mM) of the compounds were prepared in sterile DMSO and then diluted to the desired concentration in growth medium. Cells were infected with the prototype HIV-1LAI at a multiplicity of infection of 0.01. Virus obtained from the cell supernatant was quantified on day 6 after infection by a reverse transcriptase assay using (rA)n·(dT)12-18 as template-primer. The DMSO present in the diluted solution (<0.1%) had no effect on the virus yield. AZT was included as positive control."}, "[2]": {"test_system": "PHA-stimulated human PBMCs", "details": "cited from earlier work"}, "CEM cells": {"test_system": "CEM cells", "details": "previous study; cited from earlier work"}, "human PBM cells": {"test_system": "human PBM cells", "assay": "Cytotoxicity assay in PBM cells", "source_text": "(§1) Cycloheximide can be included as positive cytotoxic control, and untreated cells exposed to solvent can be included as negative controls. The cytotoxicity IC50 can be obtained from the concentration-response curve using the median effective method described previously (see Chou T.-C. & Talalay P. Adv. Enzyme Regul. 1984, 22, 27-55; Belen'kii M. S. & Schinazi R. F. Antiviral Res. 1994, 25, 1-11)."}, "[3]": {"test_system": "CEM (human lymphoblastoid) cells", "assay": "Cytotoxicity assay in CEM cells", "details": "Lymphoblastoid cell, read-out: CEM IC50", "source_text": "as §1"}, "Vero cells": {"test_system": "Vero cells", "assay": "Cytotoxicity assay in Vero cells", "details": "Chlorocebus sabaeus, read-out: Vero IC50", "source_text": "as §1"}, "HepG2 cells": {"test_system": "HepG2 cells", "details": "HepG2 cells incubated with 10 μM; cited from earlier work"}, "[4]": {"details": "50 μM nucleoside analog, 50 mM potassium phosphate pH 7.4, 25° C."}, "[5]": {"details": "human PBM cells, RS-788 n = 3, RS-864 n = 2"}}, "note": "Entries after “also recorded” stand apart in the source; their conditions may differ. Where two headings read alike, the source gives them in different places.", "data": [{"compound": "[N-]=[N+]=N[C@H]1C[C@H](n2cnc3c(=O)[nH]c(N)nc32)O[C@@H]1CO", "note": "[AZG]", "values": [{"measurement": "concentration at which phosphorylation reaches steady state", "setting": "MT-2 cells; MT-2, four different concentrations", "value": 30, "unit": "µM"}]}, {"compound": "C=CCNc1nc(N)nc2c1ncn2[C@H]1CC(N=[N+]=[N-])[C@@H](CO)O1", "note": "(stereo partly shown) [Compound 62]", "values": [{"measurement": "nucleosides/nucleotides detected by LC/MS", "setting": "[1]; human, 4 h", "value": "RFS-457-DP and RFS-457-TP"}, {"measurement": "species not detected by LC/MS", "setting": "[1]; human, 4 h", "value": "No RFS-427, RFS-427-MP, RFS-427-DP, or RFS-427-TP were detected"}]}, {"compound": "CN(C)c1nc(N)nc2c1ncn2[C@H]1CC(N=[N+]=[N-])[C@@H](CO)O1", "note": "(stereo partly shown) [Compound 69]", "values": [{"measurement": "Conversion to the G analog by / stability to adenosine deaminase", "setting": "adenosine deaminase; under the conditions tested", "value": "stable to adenosine deaminase"}]}, {"compound": "COc1nc(N)nc2c1ncn2[C@H]1CC(N=[N+]=[N-])[C@@H](CO)O1", "note": "(stereo partly shown) [Compound 70]", "values": [{"measurement": "nucleosides/nucleotides detected by LC/MS", "setting": "[1]; human, 4 h", "value": "RFS-506-DP, RFS-457-DP, and RFS-457-TP"}, {"measurement": "species not detected by LC/MS", "setting": "[1]; human, 4 h", "value": "No RFS-506, RFS-506-MP, or RFS-506-TP were detected"}]}, {"compound": "[N-]=[N+]=NC1C[C@H](n2cnc3c(NC4CC4)nc(N)nc32)O[C@@H]1CO", "note": "(stereo partly shown) [Compound 72]", "values": [{"measurement": "nucleosides/nucleotides detected by LC/MS", "setting": "[1]; human, 4 h", "value": "RFS-457-DP and RFS-457-TP"}, {"measurement": "species not detected by LC/MS", "setting": "[1]; human, 4 h", "value": "No RFS-512, RFS-512-MP, RFS-512-DP, or RFS-512-TP were detected"}]}, {"compound": "[N-]=[N+]=NC1C[C@H](n2cnc3c(Cl)nc(N)nc32)O[C@@H]1CO", "note": "(stereo partly shown) [Compound 6415]", "values": [{"measurement": "Deamination in 7 min (0.002 units Adenosine Deaminase)", "setting": "adenosine deaminase; [4]", "value": "12.81 ± 1.57", "unit": "%"}, {"measurement": "Deamination in 120 min (0.2 units Adenosine Deaminase)", "setting": "adenosine deaminase; [4]", "value": "240.53 ± 5.86", "unit": "%"}, {"measurement": "AZG-TP levels compared with AZG treatment", "setting": "[1]; PBM cells, 4 hr at 50 μM", "value": "higher"}, {"measurement": "nucleosides/nucleotides detected by LC/MS", "setting": "[1]; human, 4 h", "value": "RFS-457-TP"}, {"measurement": "species not detected by LC/MS", "setting": "[1]; human, 4 h", "value": "Neither Compound 6415 nor its phosphates were detected"}, {"measurement": "level of unchanged drug detected", "setting": "MT-2 cells; MT-2 cells treated with drug for 30 min", "value": "Negligible levels of 6415"}, {"measurement": "nucleosides/nucleotides detected", "setting": "MT-2 cells; MT-2 cells, 50 μM, 4 hr", "value": "converted to AZG and AZG-TP"}, {"measurement": "AZG-TP levels compared with AZG treatment", "setting": "MT-2 cells; MT-2 cells, 4 hr at 50 μM", "value": "higher"}]}, {"compound": "Nc1nc(N)c2ncn([C@H]3CO[C@@H](CO)O3)c2n1", "note": "[DAPD, (−)-β-D-2,6-diaminopurine dioxolane, reference compound]", "values": [{"measurement": "EC50", "setting": "HIV-1LAI; [5]", "value": 1, "unit": "µM"}, {"measurement": "EC90", "setting": "HIV-1LAI; [5]", "value": 6.5, "unit": "µM"}, {"measurement": "DAPD levels in PBMCs relative to CEM cells", "setting": "[2]; Antimicrob. Agents Chemother. 2001, 45, 158-165", "value": 27, "unit": "fold"}, {"measurement": "intracellular metabolism", "setting": "[2]; PHA-stimulated human PBMCs, previous study", "value": "readily deaminate to (−)-D-dioxolane guanine (DXG); also recorded: No phosphorylation of DAPD to the corresponding mono-, di-, or triphosphate forms was detected"}, {"measurement": "intracellular metabolism", "setting": "CEM cells", "value": "readily deaminate to (−)-D-dioxolane guanine (DXG); also recorded: No phosphorylation of DAPD to the corresponding mono-, di-, or triphosphate forms was detected"}, {"measurement": "IC50", "setting": "human PBM cells; Homo sapiens, PBMC, read-out: PBM IC50", "value": "> 100", "unit": "µM"}, {"measurement": "IC50", "setting": "[3]", "value": "> 100", "unit": "µM"}, {"measurement": "IC50", "setting": "Vero cells", "value": "> 100", "unit": "µM"}]}, {"compound": "CCOC(=O)[C@H](C)NP(=O)(OC[C@@H]1OC[C@H](n2cnc3c(N)nc(N)nc32)O1)Oc1ccccc1", "note": "(stereo partly shown) [RS-864]", "values": [{"measurement": "EC50", "setting": "HIV-1LAI", "value": 0.24, "unit": "µM"}, {"measurement": "EC90", "setting": "HIV-1LAI", "value": 1.3, "unit": "µM"}, {"measurement": "nucleosides/nucleotides detected by LC/MS", "setting": "[1]; PBM cells, 4 hr incubation", "value": "low levels of DXG, DXG-MP, and DXG-TP; also recorded: very high levels of DAPD-TP; also recorded: low levels of DAPD, DAPD-MP, DAPD-DP"}, {"measurement": "PBM IC50 printed as percent at a single concentration", "setting": "human PBM cells; @ 100 μM", "value": 66.5, "unit": "% @ 100 μM"}, {"measurement": "IC50", "setting": "[3]", "value": "> 100", "unit": "µM"}, {"measurement": "IC50", "setting": "Vero cells", "value": "> 100", "unit": "µM"}]}, {"compound": "O=c1[nH]c(=O)n([C@@H]2O[C@H](CO)[C@@H](O)[C@@H]2F)cc1I", "note": "[fialuridine, 1,2′-deoxy-2′-fluoro-1-D-arabinofuranosly-5-iodo-uracil]", "values": [{"measurement": "mitochondrial morphology in electron micrographs", "setting": "HepG2 cells", "value": "enlarged mitochondria with morphological changes consistent with mitochondrial dysfunction"}]}]}
